Our source for the EC50 values is BindingDB's records for doi:10.1016/j.bmcl.2019.05.013 (Daiichi Sankyo, 2019).

The target of the experiment is T1, Solute carrier family 2, facilitated glucose transporter member 4 (Rattus norvegicus, UniProt P19357).
T1 sequence (P19357 whole entry): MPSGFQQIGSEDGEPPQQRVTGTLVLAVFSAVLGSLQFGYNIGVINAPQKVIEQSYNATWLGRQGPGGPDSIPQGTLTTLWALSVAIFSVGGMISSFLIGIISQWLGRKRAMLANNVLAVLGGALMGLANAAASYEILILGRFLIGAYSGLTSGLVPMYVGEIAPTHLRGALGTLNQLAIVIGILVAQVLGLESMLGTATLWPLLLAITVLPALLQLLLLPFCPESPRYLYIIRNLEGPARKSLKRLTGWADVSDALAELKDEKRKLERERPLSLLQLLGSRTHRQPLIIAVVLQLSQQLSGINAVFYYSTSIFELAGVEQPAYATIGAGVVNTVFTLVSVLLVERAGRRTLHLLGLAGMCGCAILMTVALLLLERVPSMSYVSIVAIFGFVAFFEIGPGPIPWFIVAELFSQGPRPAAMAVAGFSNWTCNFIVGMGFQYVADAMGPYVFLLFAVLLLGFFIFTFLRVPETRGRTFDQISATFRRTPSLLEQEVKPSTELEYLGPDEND
As to the kind of experiment: Induction of GLUT4 translocation in rat L6-GLUT4myc differentiated myotube cells after 20 mins by chemiluminescent method.
Consider `COc1ccccc1-c1nnc(Nc2ccc(CC(N)=O)cc2)c2c1CCC2`, for which the half-maximal effective concentration (EC50) (usually the concentration needed to bring the measured effect to its halfway point) was 4.7 µM. This counts as single-digit micromolar.

In turn, `NC(=O)Cc1ccc(Nc2nnc(-c3ccccc3OCc3cscn3)c3sccc23)c(F)c1` had an EC50 of 0.11 µM.

For the compound `COc1ccccc1-c1nnc(Nc2ccc(CC(N)=O)cc2F)c2ccsc12`, the EC50 came to 0.65 µM.

Consider `COCCOCCOc1ccccc1-c1nnc(Nc2ccc(CC(N)=O)cc2F)c2ccsc12`, for which the midpoint of the response, the EC50, lay at 0.23 µM. Compared with the last compound, the EC50 is about 2.8-fold lower.

`CC(C)(C)OC(=O)NCCOCCOc1ccccc1-c1nnc(Nc2ccc(CC(N)=O)cc2F)c2ccsc12` gave an EC50 of 0.024 µM.

As to `CC(C)(C)NC(=O)NCCOCCOc1ccccc1-c1nnc(Nc2ccc(CC(N)=O)cc2F)c2ccsc12`, the EC50 was determined as 0.12 µM.

The compound `NC(=O)Cc1ccc(Nc2nnc(-c3ccccc3OCc3ccccn3)c3sccc23)c(F)c1` showed an EC50 of 0.14 µM.

Take `NC(=O)Cc1ccc(Nc2nnc(-c3ccccc3OCC3COCCO3)c3sccc23)c(F)c1` (stereo unspecified): the response was half-maximal at 0.076 µM (EC50).

On to `COCCOc1ccccc1-c1nnc(Nc2ccc(CC(N)=O)cc2F)c2ccsc12`, for which a half-maximal effect (EC50) was put at 0.14 µM.

As to `CC(C)(C)OC(=O)NCCCCOc1ccccc1-c1nnc(Nc2ccc(CC(N)=O)cc2F)c2ccsc12`, it took 0.047 µM to reach a half-maximal effect (EC50).

`CCOC(=O)NCCCCOc1ccccc1-c1nnc(Nc2ccc(CC(N)=O)cc2F)c2ccsc12` came in with an EC50 of 0.23 µM.
